Results: patent publication US9018244B2, “Benzopyran compounds, compositions and uses thereof” (Olema Pharmaceuticals, Inc., priority 2011, dated 2015)
“Also recorded” adds a separate entry of the source.

Experiments:
[1] = test system: human MCF-7 breast cancer cells; test: E2-stimulated proliferation of MCF-7 breast cancer cells; type: cell-based; details: MCF-7 cells, 100 pM E2, 6-8 days
Protocol: FIG. 11. […] A) OP-1074 had similar potency to model anti-estrogens in inhibiting E2-stimulated proliferation of breast cells in vitro. MCF-7 cells were treated with anti-estrogens in hormone-depleted medium for 6-8 days in the presence of 100 pM E2. Proliferation was measured using Cyquant fluorescent DNA-binding dye (Invitrogen, Grand Island, N.Y.). Results were from a single representative experiment and reported as the mean percent induction relative to E2 from triplicate treatments, with error bars representing SEM. […] Results were from a single representative experiment and reported as the mean percent induction relative to E2 from triplicate treatments, with error bars representing SEM. IC50's were calculated using the least squares fit method.
Proliferation in MCF-7 was measured using a fluorescent DNA binding dye 6-8 days after treatment in triplicate with anti-estrogens in the presence of 100 pM E2 and as described in the legend to, and depicted in FIG. 11.

[2] = molecular target: T1, estrogen receptor alpha (ERα) (Homo sapiens, UniProt P03372); test: ERα expression by immunoblot after anti-estrogen treatment; type: cell-based; details: 100 nM anti-estrogen, 22-24 hours, serum-free medium; MCF-7 breast cells and ECC-1 endometrial cells
T1 construct: endogenous in cells
T1 sequence (P03372 1-595): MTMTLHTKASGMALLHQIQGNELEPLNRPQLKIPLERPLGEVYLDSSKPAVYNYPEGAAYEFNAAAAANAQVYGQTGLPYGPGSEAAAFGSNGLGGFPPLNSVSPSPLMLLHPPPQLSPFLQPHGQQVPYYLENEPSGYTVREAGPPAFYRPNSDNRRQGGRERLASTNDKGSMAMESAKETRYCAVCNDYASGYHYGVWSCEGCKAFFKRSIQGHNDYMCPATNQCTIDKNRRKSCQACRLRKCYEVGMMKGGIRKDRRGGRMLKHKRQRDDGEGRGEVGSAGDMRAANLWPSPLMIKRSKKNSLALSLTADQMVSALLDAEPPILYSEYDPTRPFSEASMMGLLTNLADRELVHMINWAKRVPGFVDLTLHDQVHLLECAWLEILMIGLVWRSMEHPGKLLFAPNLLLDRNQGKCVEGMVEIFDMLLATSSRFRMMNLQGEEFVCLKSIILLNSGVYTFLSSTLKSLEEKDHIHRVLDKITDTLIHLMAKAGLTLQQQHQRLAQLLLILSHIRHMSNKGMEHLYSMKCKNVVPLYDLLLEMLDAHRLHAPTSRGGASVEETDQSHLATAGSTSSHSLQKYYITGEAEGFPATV
Protocol: FIG. 12. […] A) ERα levels in breast cells after treatment with OP-1074 compared to treatment with model anti-estrogens. MCF-7 cells were treated with 100 nM anti-estrogen for 24 hours in serum-free medium and protein extracts immunoblotted with an antibody to ERα (D12, Santa Cruz Biotechnology, Santa Cruz, Calif.). Image is from a single representative experiment and number on top denotes the mean percent ERα expression relative to vehicle from quadruplicate treatments. B) OP-1038 induces degradation of ERα in both MCF-7 breast cells and ECC-1 endometrial cells.
ERα expression was detected in MCF-7 cell lysates treated with 100 nM anti-estrogens in serum-free medium for 22-24 hours and immunoblotted with an antibody specific to ERα as described in the legend to, and depicted in FIG. 12.

[3] = test system: alkaline phosphatase (AP) activity in ECC-1 cells; test: Alkaline phosphatase (AP) assay in ECC-1 cells, agonist mode (without E2); type: cell-based, human; details: without E2, 3 days
Source text: FIG. 2. Alkaline phosphatase (AP) activity in ECC-1 cells correlates with the uterine wet weight of ovariectomized rats, as reported previously in Scafonas, et al. (*; Scafonas et al. “Agonist-like SERM effects on ER alpha-mediated repression of MMPI promoter activity predict in vivo effects on bone and uterus. J Steroid Biochem Mol. Biol. 2008 110(3-5):197-206) and Labrie, et al. (†; Labrie et al. “The combination of a novel selective estrogen receptor modulator with an estrogen protects the mammary gland and uterus in a rodent model: the future of postmenopausal women's health?” Endocrinology. 2003 144(11):4700-6). ECC-1 cells were treated with 500 pM 17β-estradiol (E2) or 1-5 nM anti-estrogens in hormone-depleted medium for 3 days. […] AP activity was measured by incubating a chromogenic AP substrate, p-nitrophenyl phosphate, at 40° C. for 40 minutes followed by measuring the absorbance at 405 nm. […]
FIG. 3. […] ECC-1 cells were treated with 100 nM anti-estrogens and AP activity was measured as described in FIG. 2. […] Note that OP-1038 was statistically different from Aragon Compound 28 (WO2011/156518), EM-343 and Gauthier compound Ia (p≦0.01 (exact p values stated in graph), calculated using Student's t-test).
Method for performing the alkaline phosphatase (AP) assay. […] Absorbance was read at 405 nm using a plate spectophotometer. […]

Row | SMILES | Antagonism of E2-stimulated proliferation [1] | Degradation of ERα [2] | Estrogenic activity: AP activity, percent induction relative to E2 [3]
1 | CC1=C(c2ccc(O)cc2)C(c2ccc(OCCN3CC[C@@H](C)C3)cc2)Oc2cc(O)ccc21 (stereo partly drawn) [OP-1038, 3-(4-hydroxyphenyl)-4-methyl-2-(4-{2-[(3R)-3-methylpyrrolidin-1-yl]ethoxy}phenyl)-2H-chromen-7-ol] | improved potency; also recorded: potent antagonists | comparable to fulvestrant; also recorded: induce degradation | lacks estrogenic activity; also recorded: less estrogenic than Aragon Compound 28
2 | CC1=C(c2ccc(O)cc2)[C@H](c2ccc(OCCN3CC[C@@H](C)C3)cc2)Oc2cc(O)ccc21 [OP-1074, (2S)-3-(4-hydroxyphenyl)-4-methyl-2-(4-{2-[(3R)-3-methylpyrrolidin-1-yl]ethoxy}phenyl)-2H-chromen-7-ol] | improved potency; also recorded: potent antagonists | comparable to fulvestrant; also recorded: induce degradation | essentially no estrogenic activity; also recorded: lack estrogenic activity; also recorded: did not stimulate AP activity
